From PubChem BioAssay (NCI)
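Protocol summary: plate cells (96-well), add compound at 5 concentrations, incubate 48 h, interpolate endpoints linearly. At the GI50, growth is halved. TGI is the concentration that stops growth completely.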

Tests used:
Assay in all cases: growth of human tumour cells (NCI), 48 h; in the data active means GI50 below about 0.43 µM; inactive means the rest
SNB-19 CNS = test system: SNB-19 CNS
UACC-257 melanoma = test system: UACC-257 melanoma
NCI-H23 lung = test system: NCI-H23 lung
SK-OV-3 ovarian = test system: SK-OV-3 ovarian
OVCAR-8 ovarian = test system: OVCAR-8 ovarian
HOP-62 NSCLC = test system: HOP-62 NSCLC
OVCAR-3 ovarian = test system: OVCAR-3 ovarian
MDA-MB-231 breast = test system: MDA-MB-231 breast
UACC-62 melanoma = test system: UACC-62 melanoma
LOX IMVI melanoma = test system: LOX IMVI melanoma

O=C(O)c1cc2ccccc2c(N=Nc2cc(C(F)(F)F)ccc2Cl)c1O
> 100 µM: TGI (UACC-257 melanoma) | TGI (NCI-H23 lung) | TGI (SK-OV-3 ovarian) | TGI (OVCAR-8 ovarian) | TGI (HOP-62 NSCLC) | TGI (OVCAR-3 ovarian)
86.7 µM: TGI (MDA-MB-231 breast)
21.5 µM: TGI (SNB-19 CNS)

CC(C)C1CC2C(=O)N(c3ccccc3)C(=O)C2c2[nH]c3ccccc3c21 (stereo unspecified)
> 100 µM: TGI (UACC-257 melanoma) | TGI (HOP-62 NSCLC) | TGI (UACC-62 melanoma)
38 µM: TGI (OVCAR-3 ovarian)
84 µM: TGI (NCI-H23 lung)
79.4 µM: TGI (SK-OV-3 ovarian)
40.1 µM: TGI (OVCAR-8 ovarian)

CN1C(c2ccccc2)CS(=O)(=O)CS1(=O)=O (stereo unspecified)
88.7 µM: TGI (OVCAR-3 ovarian)
> 100 µM: TGI (SNB-19 CNS) | TGI (UACC-257 melanoma) | TGI (NCI-H23 lung) | TGI (SK-OV-3 ovarian) | TGI (OVCAR-8 ovarian) | TGI (HOP-62 NSCLC) | TGI (LOX IMVI melanoma) | TGI (UACC-62 melanoma)

CN(CC#N)C1CCCC[C@H]1O (stereo partly specified)
> 100 µM: TGI (SNB-19 CNS) | TGI (UACC-257 melanoma) | TGI (NCI-H23 lung) | TGI (SK-OV-3 ovarian) | TGI (OVCAR-8 ovarian) | TGI (HOP-62 NSCLC) | TGI (LOX IMVI melanoma) | TGI (OVCAR-3 ovarian) | TGI (UACC-62 melanoma)

Cc1cc2cn3c4ccc(O)cc4[nH]c(=O)c3c2cc1C
1.4 µM: TGI (NCI-H23 lung)
1.33 µM: TGI (HOP-62 NSCLC)
1.68 µM: TGI (SNB-19 CNS)
1.22 µM: TGI (MDA-MB-231 breast)
1.31 µM: TGI (UACC-257 melanoma) | TGI (OVCAR-8 ovarian)
0.0399 µM: TGI (OVCAR-3 ovarian)
0.298 µM: TGI (SK-OV-3 ovarian)
active: GI50 (SNB-19 CNS) 0.0358 µM | GI50 (UACC-257 melanoma) 0.0416 µM | GI50 (NCI-H23 lung) 0.0744 µM | GI50 (SK-OV-3 ovarian) 0.0293 µM | GI50 (OVCAR-8 ovarian) 0.0359 µM | GI50 (HOP-62 NSCLC) 0.0415 µM | GI50 (OVCAR-3 ovarian) 0.0125 µM | GI50 (MDA-MB-231 breast) 0.071 µM | GI50 (UACC-62 melanoma) 0.0411 µM
1.78 µM: TGI (UACC-62 melanoma)

O=C(Nc1cccc(Cc2cccc(NC(=O)c3ccccc3)c2)c1)c1ccccc1
94.6 µM: TGI (SNB-19 CNS)
> 100 µM: TGI (UACC-257 melanoma) | TGI (NCI-H23 lung) | TGI (OVCAR-8 ovarian) | TGI (LOX IMVI melanoma) | TGI (OVCAR-3 ovarian) | TGI (UACC-62 melanoma)
62.5 µM: TGI (SK-OV-3 ovarian)
60.9 µM: TGI (HOP-62 NSCLC)

NC(=O)c1coc(C2OC(CO)C(O)C2O)n1 (stereo unspecified)
> 100 µM: TGI (SNB-19 CNS) | TGI (NCI-H23 lung) | TGI (SK-OV-3 ovarian) | TGI (HOP-62 NSCLC) | TGI (LOX IMVI melanoma) | TGI (OVCAR-3 ovarian) | TGI (UACC-62 melanoma)

O/N=C1/C(=C/c2ccc(Oc3ccccc3)cc2)CCCC1C(NO)c1ccc(Oc2ccccc2)cc1 (stereo unspecified)
29.1 µM: TGI (LOX IMVI melanoma)
> 100 µM: TGI (SNB-19 CNS) | TGI (UACC-257 melanoma) | TGI (SK-OV-3 ovarian) | TGI (OVCAR-8 ovarian) | TGI (HOP-62 NSCLC) | TGI (OVCAR-3 ovarian) | TGI (UACC-62 melanoma)
63.3 µM: TGI (NCI-H23 lung)

CCOC(=O)C(=O)Nc1ccc(Cl)cc1C
> 100 µM: TGI (SNB-19 CNS) | TGI (UACC-257 melanoma) | TGI (NCI-H23 lung) | TGI (SK-OV-3 ovarian) | TGI (OVCAR-8 ovarian) | TGI (HOP-62 NSCLC) | TGI (LOX IMVI melanoma) | TGI (OVCAR-3 ovarian) | TGI (UACC-62 melanoma)

COC(=O)CCC(=O)Nc1cc(Cl)ccc1Cl
> 100 µM: TGI (SNB-19 CNS) | TGI (UACC-257 melanoma) | TGI (NCI-H23 lung) | TGI (SK-OV-3 ovarian) | TGI (OVCAR-8 ovarian) | TGI (HOP-62 NSCLC) | TGI (LOX IMVI melanoma) | TGI (OVCAR-3 ovarian) | TGI (UACC-62 melanoma)

O=C(O)c1cc2ccccc2oc1=O
> 100 µM: TGI (SNB-19 CNS) | TGI (UACC-257 melanoma) | TGI (NCI-H23 lung) | TGI (OVCAR-8 ovarian) | TGI (HOP-62 NSCLC) | TGI (LOX IMVI melanoma) | TGI (OVCAR-3 ovarian) | TGI (MDA-MB-231 breast) | TGI (UACC-62 melanoma)

CN(C)/N=C(/c1nc2ccc([N+](=O)[O-])cc2[nH]c1=O)C(O)c1ccco1 (stereo unspecified)
> 100 µM: TGI (SNB-19 CNS) | TGI (UACC-257 melanoma) | TGI (NCI-H23 lung) | TGI (SK-OV-3 ovarian) | TGI (OVCAR-8 ovarian) | TGI (HOP-62 NSCLC) | TGI (LOX IMVI melanoma) | TGI (OVCAR-3 ovarian) | TGI (UACC-62 melanoma)

CC(=O)c1ccc2c(ccc(=O)n2C)c1
> 100 µM: TGI (SNB-19 CNS) | TGI (NCI-H23 lung) | TGI (SK-OV-3 ovarian) | TGI (OVCAR-8 ovarian) | TGI (HOP-62 NSCLC) | TGI (LOX IMVI melanoma) | TGI (OVCAR-3 ovarian) | TGI (UACC-62 melanoma)

O=C(c1ccccc1)c1oc2ccc(Br)cc2c1-c1cnn(-c2ccccc2)c1
> 100 µM: TGI (SNB-19 CNS) | TGI (UACC-257 melanoma) | TGI (NCI-H23 lung) | TGI (SK-OV-3 ovarian) | TGI (HOP-62 NSCLC) | TGI (LOX IMVI melanoma) | TGI (OVCAR-3 ovarian) | TGI (UACC-62 melanoma)

O=C(CC1(O)C(=O)Nc2ccccc21)c1ccco1 (stereo unspecified)
> 100 µM: TGI (SNB-19 CNS) | TGI (UACC-257 melanoma) | TGI (NCI-H23 lung) | TGI (SK-OV-3 ovarian) | TGI (OVCAR-8 ovarian) | TGI (HOP-62 NSCLC) | TGI (LOX IMVI melanoma) | TGI (OVCAR-3 ovarian) | TGI (UACC-62 melanoma)

O=C(/C=C/C=C/c1c(C2CC2)nc2ccccc2c1-c1ccc(F)cc1)c1cccs1
inactive: GI50 (SNB-19 CNS) 4.05 µM | GI50 (UACC-257 melanoma) 1.97 µM | GI50 (NCI-H23 lung) 2.35 µM | GI50 (SK-OV-3 ovarian) 9.44 µM | GI50 (OVCAR-8 ovarian) 3.58 µM | GI50 (HOP-62 NSCLC) 2.74 µM | GI50 (OVCAR-3 ovarian) 1.5 µM | GI50 (MDA-MB-231 breast) 2.58 µM | GI50 (UACC-62 melanoma) 1.46 µM
4.99 µM: TGI (OVCAR-3 ovarian)
> 100 µM: TGI (SNB-19 CNS) | TGI (NCI-H23 lung) | TGI (SK-OV-3 ovarian) | TGI (OVCAR-8 ovarian) | TGI (MDA-MB-231 breast)
6.64 µM: TGI (UACC-62 melanoma)
7.25 µM: TGI (HOP-62 NSCLC)
6.22 µM: TGI (UACC-257 melanoma)

CCCCCCCCCCCCCCCC[N+](C)(CCO)Cc1cnc[nH]1 (stereo unspecified)
5.3 µM: TGI (NCI-H23 lung)
1.68 µM: TGI (HOP-62 NSCLC)
inactive: GI50 (UACC-257 melanoma) 4.08 µM | GI50 (NCI-H23 lung) 0.858 µM | GI50 (SK-OV-3 ovarian) 1.5 µM | GI50 (HOP-62 NSCLC) 0.456 µM | GI50 (OVCAR-3 ovarian) 0.995 µM | GI50 (MDA-MB-231 breast) 1.48 µM
5.5 µM: TGI (MDA-MB-231 breast)
5.22 µM: TGI (SK-OV-3 ovarian)
72.7 µM: TGI (UACC-257 melanoma)
3.31 µM: TGI (OVCAR-3 ovarian)

COC(=O)NC1(NC(=O)OC)NC(=O)c2cc(OC)c(OC)c(OC)c2N1
> 100 µM: TGI (SNB-19 CNS) | TGI (UACC-257 melanoma) | TGI (NCI-H23 lung) | TGI (SK-OV-3 ovarian) | TGI (OVCAR-8 ovarian) | TGI (HOP-62 NSCLC) | TGI (OVCAR-3 ovarian) | TGI (MDA-MB-231 breast) | TGI (UACC-62 melanoma)

Cc1ccc(NC(=O)C(=O)CC(=O)C2CCOC2=O)c(C)c1 (stereo unspecified)
> 100 µM: TGI (SNB-19 CNS) | TGI (UACC-257 melanoma) | TGI (NCI-H23 lung) | TGI (SK-OV-3 ovarian) | TGI (OVCAR-8 ovarian) | TGI (HOP-62 NSCLC) | TGI (LOX IMVI melanoma) | TGI (OVCAR-3 ovarian) | TGI (UACC-62 melanoma)

COc1ccc(Cc2cc3c(cc2OCC(=O)O)OCO3)cc1
> 100 µM: TGI (SNB-19 CNS) | TGI (UACC-257 melanoma) | TGI (NCI-H23 lung) | TGI (SK-OV-3 ovarian) | TGI (OVCAR-8 ovarian) | TGI (HOP-62 NSCLC) | TGI (LOX IMVI melanoma) | TGI (OVCAR-3 ovarian) | TGI (UACC-62 melanoma)

O=S(=O)(N/N=C/c1cccc(Cl)c1Cl)c1ccccc1
> 100 µM: TGI (UACC-257 melanoma) | TGI (NCI-H23 lung) | TGI (SK-OV-3 ovarian) | TGI (OVCAR-8 ovarian) | TGI (HOP-62 NSCLC) | TGI (LOX IMVI melanoma) | TGI (OVCAR-3 ovarian) | TGI (UACC-62 melanoma)

COc1ccc(N/N=C(\CCN(C)C)c2ccccc2)cc1
11.4 µM: TGI (OVCAR-3 ovarian)
6.23 µM: TGI (UACC-62 melanoma)
27.2 µM: TGI (OVCAR-8 ovarian)
19.7 µM: TGI (NCI-H23 lung)
14.5 µM: TGI (SNB-19 CNS)
9.77 µM: TGI (HOP-62 NSCLC)
16.4 µM: TGI (UACC-257 melanoma)
7.74 µM: TGI (LOX IMVI melanoma)
9.74 µM: TGI (SK-OV-3 ovarian)
